From patent publication US20090131431A1, “Pyrazolo[3,4-b]pyridine compounds, and their use as a PDE4 inhibitors” (priority 2005, published 2009) come the findings set out here.

The target in this test is T1, PDE4B (human recombinant) (Homo sapiens, UniProt Q07343).
T1 construct: made in house
The test can be described thus: Inhibition of PDE4B activity: SPA and/or Fluorescence Polarisation (FP) assay. It is filed as biochemical. The settings on record: one reading (n=1) or average of 2 or more readings, read-out: PDE4B pIC50 (±about 0.5) (converted). Here is the method:
The ability of compounds to inhibit catalytic activity at PDE4B or 4D (human recombinant), PDE3 (from bovine aorta), PDE5 (human recombinant) or PDE6 (from bovine retina) can optionally be determined by Scintillation Proximity Assay (SPA) in a 96-well format.
The enzyme concentration is adjusted so that no more than 20% hydrolysis of the substrate defined below occurs in control wells without compound, during the incubation. For the PDE3, PDE4B and PDE4D assays, [5′,8-3H]Adenosine 3′,5′-cyclic phosphate (Amersham Pharmacia Biotech, code TRK.559; or Amersham Biosciences UK Ltd, Pollards Wood, Chalfont St Giles, Buckinghamshire HP8 4SP, UK) is added to give 0.05 uCi per well and about 10 nM final concentration. […] Plates containing assay mixture, suitably approx. 100 ul volume of assay mixture, are mixed on an orbital shaker for 5 minutes and incubated at ambient temperature for 1 hour. Phosphodiesterase SPA beads (Amersham Pharmacia Biotech, code RPNQ 0150) are added (about 1 mg per well) to terminate the assay. Plates are sealed and shaken and allowed to stand at ambient temperature for 35 minutes to 1 hour (suitably 35 minutes) to allow the beads to settle. […] Curves are analysed using ActivityBase and XLfit (ID Business Solutions Limited, 2 Ocean Court, Surrey Research Park, Guildford, Surrey GU2 7QB, United Kingdom). Results are expressed as pIC50 values.
The ability of compounds to inhibit catalytic activity at PDE4B (human recombinant) or PDE4D (human recombinant) can optionally be determined by IMAP Fluorescence Polarisation (FP) assay (IMAP Explorer kit, available from Molecular Devices Corporation, Sunnydale, Calif., USA; Molecular Devices code: R8062) in 384-well format.
The IMAP FP assay is able to measure PDE activity in an homogenous, non-radioactive assay format. The FP assay uses the ability of immobilised trivalent metal cations, coated onto nanoparticles (tiny beads), to bind the phosphate group of Fl-AMP that is produced on the hydrolysis of fluorescein-labelled (Fl) cyclic adenosine mono-phosphate (Fl-cAMP) to the non-cyclic Fl-AMP form. […] Binding of Fl-AMP product to the beads (coated with the immobilised trivalent cations) slows the rotation of the bound Fl-AMP and leads to an increase in the fluorescence polarisation ratio of parallel to perpendicular light. Inhibition of the PDE reduces/inhibits this signal increase.
The enzyme level is set by experimentation so that reaction is linear throughout the incubation. Fluorescein adenosine 3′,5′-cyclic phosphate (from Molecular Devices Corporation, Molecular Devices code: R7091) is added to give about 40 nM final concentration (final assay volume usually ca. 20-40 ul, suitably ca. 20 ul). Plates are mixed on an orbital shaker for 10 seconds and incubated at ambient temperature for 40 minutes. IMAP binding reagent (as described above, from Molecular Devices Corporation, Molecular Devices code: R7207) is added (60 ul of a 1 in 400 dilution in binding buffer of the kit stock solution) to terminate the assay. Plates are allowed to stand at ambient temperature for 1 hour. The Fluorescence Polarisation (FP) ratio of parallel to perpendicular light is measured using an Analyst™ plate reader (from Molecular Devices Corporation). […] Curves are analysed using ActivityBase and XLfit (ID Business Solutions Limited, 2 Ocean Court, Surrey Research Park, Guildford, Surrey GU2 7QB, United Kingdom). Results are expressed as plC50 values.
(In general: Polarisation of emitted light reports the rotation of a fluorescent probe.)

T1 sequence (Q07343 1-564 isoform Q07343-2): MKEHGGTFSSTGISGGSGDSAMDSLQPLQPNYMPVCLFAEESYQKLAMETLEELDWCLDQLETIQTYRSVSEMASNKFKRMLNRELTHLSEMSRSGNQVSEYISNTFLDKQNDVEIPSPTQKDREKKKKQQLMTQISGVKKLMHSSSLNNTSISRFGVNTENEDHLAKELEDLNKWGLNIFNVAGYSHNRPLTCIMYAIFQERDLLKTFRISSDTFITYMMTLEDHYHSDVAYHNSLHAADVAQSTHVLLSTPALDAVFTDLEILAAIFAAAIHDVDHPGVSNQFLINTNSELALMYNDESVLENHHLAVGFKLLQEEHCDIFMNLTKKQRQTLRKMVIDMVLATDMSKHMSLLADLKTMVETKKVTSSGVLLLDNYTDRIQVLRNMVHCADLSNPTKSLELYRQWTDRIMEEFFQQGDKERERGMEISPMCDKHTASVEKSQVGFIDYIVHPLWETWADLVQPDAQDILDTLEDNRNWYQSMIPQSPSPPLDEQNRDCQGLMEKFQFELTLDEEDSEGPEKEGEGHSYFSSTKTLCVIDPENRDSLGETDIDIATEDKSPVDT

Consider `CCc1nc2c(cnn2CC)c(NC2CCOCC2)c1CNC(=O)c1ccc(N2CCCCC2)cc1` [Example 175, N-{[1,6-diethyl-4-(tetrahydro-2H-pyran-4-ylamino)-1H-pyrazolo[3,4-b]pyridin-5-yl]methyl}-4-(1-piperidinyl)benzamide], for which the IC50 is 10 to 100 pM.
Then `CCc1nc2c(cnn2CC)c(NC2CCOCC2)c1CNC(=O)c1ccc2c(c1)CCC2` [Example 176, N-{[1,6-diethyl-4-(tetrahydro-2H-pyran-4-ylamino)-1H-pyrazolo[3,4-b]pyridin-5-yl]methyl}-2,3-dihydro-1H-indene-5-carboxamide], with 10 to 100 pM; and `CCc1nc2c(cnn2CC)c(NC2CCOCC2)c1CNC(=O)c1ccc2c(c1)CCCC2` [Example 177, N-{[1,6-diethyl-4-(tetrahydro-2H-pyran-4-ylamino)-1H-pyrazolo[3,4-b]pyridin-5-yl]methyl}-5,6,7,8-tetrahydro-2-naphthalenecarboxamide], with 126 to 1000 pM.
Then `CCc1nc2c(cnn2CC)c(NC2CCOCC2)c1CNC(=O)c1ccc(N2CCCC2=O)cc1` [Example 178, N-{[1,6-diethyl-4-(tetrahydro-2H-pyran-4-ylamino)-1H-pyrazolo[3,4-b]pyridin-5-yl]methyl}-4-(2-oxo-1-pyrrolidinyl)benzamide], with 10 to 100 pM; and `CCc1nc2c(cnn2CC)c(NC2CCOCC2)c1CNC(=O)c1cc(S(=O)(=O)c2ccccc2)ccc1OC` [Example 179, N-{[1,6-diethyl-4-(tetrahydro-2H-pyran-4-ylamino)-1H-pyrazolo[3,4-b]pyridin-5-yl]methyl}-2-(methyloxy)-5-(phenylsulfonyl)benzamide], with 10 to 100 pM.
Then `CCc1nc2c(cnn2CC)c(NC2CCOCC2)c1CNC(=O)c1ccc(N2CCOCC2)cc1` [Example 180, N-{[1,6-diethyl-4-(tetrahydro-2H-pyran-4-ylamino)-1H-pyrazolo[3,4-b]pyridin-5-yl]methyl}-4-(4-morpholinyl)benzamide], with 10 to 100 pM.
For the compound `CCc1nc2c(cnn2CC)c(NC2CCOCC2)c1CNC(=O)c1cc(C(=O)N(C)c2ccccc2)ccc1OC` [Example 182, N˜3˜-{[1,6-diethyl-4-(tetrahydro-2H-pyran-4-ylamino)-1H-pyrazolo[3,4-b]pyridin-5-yl]methyl}-N˜1˜-methyl-4-(methyloxy)-N-˜1˜-phenyl-1,3-benzenedicarboxamide], the IC50 is 10 to 100 pM.
Then `CCc1nc2c(cnn2CC)c(NC2CCOCC2)c1CNC(=O)c1cc(S(=O)(=O)NCC2CC2)ccc1OC` [Example 183, 5-{[(cyclopropylmethyl)amino]sulfonyl}-N-{[1,6-diethyl-4-(tetrahydro-2H-pyran-4-ylamino)-1H-pyrazolo[3,4-b]pyridin-5-yl]methyl}-2-(methyloxy)benzamide], with 10 to 100 pM; and `CCc1nc2c(cnn2CC)c(NC2CCOCC2)c1CNC(=O)c1ccc(C2CCCC2)cc1` [Example 184, 4-cyclopentyl-N-{[1,6-diethyl-4-(tetrahydro-2H-pyran-4-ylamino)-1H-pyrazolo[3,4-b]pyridin-5-yl]methyl}benzamide], with 10 to 100 pM; and `CCc1nc2c(cnn2CC)c(NC2CCOCC2)c1CNC(=O)c1cc(S(=O)(=O)N(CC)CC)ccc1OC` [Example 185, 5-[(diethylamino)sulfonyl]-N-{[1,6-diethyl-4-(tetrahydro-2H-pyran-4-ylamino)-1H-pyrazolo[3,4-b]pyridin-5-yl]methyl}-2-(methyloxy)benzamide], with 10 to 100 pM.
Then `CCc1nc2c(cnn2CC)c(NC2CCOCC2)c1CNC(=O)c1cc(S(=O)(=O)NC2CCC2)ccc1OC` [Example 186, 5-[(cyclobutylamino)sulfonyl]-N-{[1,6-diethyl-4-(tetrahydro-2H-pyran-4-ylamino)-1H-pyrazolo[3,4-b]pyridin-5-yl]methyl}-2-(methyloxy)benzamide], with 10 to 100 pM.
Then `CCc1nc2c(cnn2CC)c(NC2CCOCC2)c1CNC(=O)c1ccc(N2CCCCCCC2)cc1` [Example 187, N-{[1,6-diethyl-4-(tetrahydro-2H-pyran-4-ylamino)-1H-pyrazolo[3,4-b]pyridin-5-yl]methyl}-4-(hexahydro-1(2H)-azocinyl)benzamide], with 126 to 1000 pM; and `CCc1nc2c(cnn2CC)c(NC2CCOCC2)c1CNC(=O)c1cc(C#N)c(C(C)C)cc1OC` [Example 188, 5-cyano-N-{[1,6-diethyl-4-(tetrahydro-2H-pyran-4-ylamino)-1H-pyrazolo[3,4-b]pyridin-5-yl]methyl}-4-(1-methylethyl)-2-(methyloxy)benzamide], with 10 to 100 pM; and `CCc1nc2c(cnn2CC)c(NC2CCOCC2)c1CNC(=O)c1cccc2c1CCC2` [Example 189, N-{[1,6-diethyl-4-(tetrahydro-2H-pyran-4-ylamino)-1H-pyrazolo[3,4-b]pyridin-5-yl]methyl}-2,3-dihydro-1H-indene-4-carboxamide], with 126 to 1000 pM.
Turning to `CCc1nc2c(cnn2CC)c(NC2CCOCC2)c1CNC(=O)c1cccc(N2CCOCC2)c1` [Example 190, N-{[1,6-diethyl-4-(tetrahydro-2H-pyran-4-ylamino)-1H-pyrazolo[3,4-b]pyridin-5-yl]methyl}-3-(4-morpholinyl)benzamide], the IC50 is 10 to 100 pM.
Then `CCc1nc2c(cnn2CC)c(NC2CCOCC2)c1CNC(=O)c1ccc2ccccc2c1` [Example 191, N-{[1,6-diethyl-4-(tetrahydro-2H-pyran-4-ylamino)-1H-pyrazolo[3,4-b]pyridin-5-yl]methyl}-2-naphthalenecarboxamide], with 126 to 1000 pM.
Consider `CCc1nc2c(cnn2CC)c(NC2CCOCC2)c1CNC(=O)c1cccc2ccccc12` [Example 192, N-{[1,6-diethyl-4-(tetrahydro-2H-pyran-4-ylamino)-1H-pyrazolo[3,4-b]pyridin-5-yl]methyl}-1-naphthalenecarboxamide], for which the IC50 was 126 to 1000 pM.
Then `CCc1nc2c(cnn2CC)c(NC2CCOCC2)c1CNC(=O)c1ccc(C(C)C)cc1` [Example 193, N-{[1,6-diethyl-4-(tetrahydro-2H-pyran-4-ylamino)-1H-pyrazolo[3,4-b]pyridin-5-yl]methyl}-4-(1-methylethyl)benzamide], with 10 to 100 pM; and `CCc1nc2c(cnn2CC)c(NC2CCOCC2)c1CNC(=O)c1ccc(NC(C)=O)cc1` [Example 194, 4-(acetylamino)-N-{[1,6-diethyl-4-(tetrahydro-2H-pyran-4-ylamino)-1H-pyrazolo[3,4-b]pyridin-5-yl]methyl}benzamide], with 10 to 100 pM.
Regarding `CCc1nc2c(cnn2CC)c(NC2CCOCC2)c1CNC(=O)c1ccoc1C` [Example 195, N-{[1,6-diethyl-4-(tetrahydro-2H-pyran-4-ylamino)-1H-pyrazolo[3,4-b]pyridin-5-yl]methyl}-2-methyl-3-furancarboxamide], the IC50 is 126 to 1000 pM.
Turning to `CCc1nc2c(cnn2CC)c(NC2CCOCC2)c1CNC(=O)c1ccccc1` [Example 196, N-{[1,6-diethyl-4-(tetrahydro-2H-pyran-4-ylamino)-1H-pyrazolo[3,4-b]pyridin-5-y]methyl}benzamide], the IC50 is 126 to 1000 pM.
Then `CCc1nc2c(cnn2CC)c(NC2CCOCC2)c1CN1Cc2occc2C1=O` [Example 198, 5-{[1,6-diethyl-4-(tetrahydro-2H-pyran-4-ylamino)-1H-pyrazolo[3,4-b]pyridin-5-yl]methyl}-5,6-dihydro-4H-furo[2,3-c]pyrrol-4-one], with 126 to 1000 pM.
Then `CCc1nc2c(cnn2CC)c(NC2CCOCC2)c1CN1Cc2ccccc2C1=O` [Example 199, 2-{[1,6-diethyl-4-(tetrahydro-2H-pyran-4-ylamino)-1H-pyrazolo[3,4-b]pyridin-5-yl]methyl}-2,3-dihydro-1H-isoindol-1-one], with 10 to 100 pM; and `CCc1nc2c(cnn2CC)c(NC2CCOCC2)c1CNC(=O)NCc1ccccc1` [Example 200], with 126 to 1000 pM.
